Assay results from ChEMBL document CHEMBL1201862, “PubChem BioAssay data set” (2004).
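In this assay, cells in 96-well plates receive the compound at five concentrations for 48 hours. Endpoints are linearly interpolated between the surrounding concentrations. GI50 = concentration required for 50% inhibition of growth.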 Calls of active or inactive are those of the source. Rule as the data show it: active = GI50 up to about 1.1 µM and inactive = higher.

Key:
Assay in all cases: growth of human tumour cells (NCI), 48 h
[1] = test system: DLD-1
[2] = test system: DMS-273
[3] = test system: KM-20L2
[4] = test system: LXFL 529
[5] = test system: XF498
[6] = test system: DMS-114
[7] = test system: HOP-18
[8] = test system: SNB-78
[9] = test system: RXF 631

SMILES | GI50 [1] | GI50 [2] | GI50 [3] | GI50 [4] | GI50 [5] | GI50 [6] | GI50 [7] | GI50 [8] | GI50 [9]
COc1ccc(S(=O)(=O)NNS(C)(=O)=O)cc1OC | > 100 µM (inactive) | > 100 µM (inactive) | > 100 µM (inactive) | > 100 µM (inactive) | > 100 µM (inactive) |  |  |  | 
CCOC(=O)C1=C(C)N(Cc2ccccc2)C(=O)C1CC#N (stereo not given) | 56.1 µM (inactive) | > 100 µM (inactive) | > 100 µM (inactive) | 43.4 µM (inactive) | < 0.01 µM (active) | 45.1 µM (inactive) | 17 µM (inactive) | 37.2 µM (inactive) | 
OC1=CN=COc2ccccc21 | > 100 µM (inactive) | > 100 µM (inactive) | > 100 µM (inactive) | > 100 µM (inactive) |  | > 100 µM (inactive) |  | > 100 µM (inactive) | > 100 µM (inactive)
CC(=O)CC(=O)NC=O | > 100 µM (inactive) | > 100 µM (inactive) | > 100 µM (inactive) | > 100 µM (inactive) | > 100 µM (inactive) | > 100 µM (inactive) | > 100 µM (inactive) | > 100 µM (inactive) | > 100 µM (inactive)
C/C(=C\c1ccccc1)C(=O)c1c(C)cc(C)cc1C | > 100 µM (inactive) |  | > 100 µM (inactive) | > 100 µM (inactive) | > 100 µM (inactive) | > 100 µM (inactive) | > 100 µM (inactive) |  | 
O=C(Cc1ccccc1)NS(=O)(=O)c1ccccc1 | > 100 µM (inactive) | > 100 µM (inactive) | > 100 µM (inactive) | > 100 µM (inactive) | > 100 µM (inactive) | > 100 µM (inactive) | > 100 µM (inactive) | > 100 µM (inactive) | > 100 µM (inactive)
CC[C@@H]1OC2(C)CC(S(=O)(=O)c3ccccc3)CC1O2 (stereo not given in full) | > 100 µM (inactive) | > 100 µM (inactive) | > 100 µM (inactive) | > 100 µM (inactive) |  | > 100 µM (inactive) | > 100 µM (inactive) | > 100 µM (inactive) | > 100 µM (inactive)
CC(=O)C1CC2(c3ccccc3)C(=O)c3ccccc3N2O1 (stereo not given) | > 100 µM (inactive) | > 100 µM (inactive) | > 100 µM (inactive) | > 100 µM (inactive) | > 100 µM (inactive) | > 100 µM (inactive) | > 100 µM (inactive) | > 100 µM (inactive) | 
Nc1ccc(C(=O)N/C(=C\c2ccc3c(c2)OCO3)c2nc3c(O)nc(S)nc3[nH]2)cc1 | > 100 µM (inactive) |  | > 100 µM (inactive) | > 100 µM (inactive) | > 100 µM (inactive) |  |  | > 100 µM (inactive) | > 100 µM (inactive)
COCC(C)(C)/N=C/N1Cc2cc3ccccc3nc2C1 | > 100 µM (inactive) |  | > 100 µM (inactive) |  | > 100 µM (inactive) | > 100 µM (inactive) | > 100 µM (inactive) |  | 
CC(=O)N(C(C)=O)c1c(N)n(C)c(=O)[nH]c1=O | > 100 µM (inactive) | > 100 µM (inactive) | > 100 µM (inactive) | > 100 µM (inactive) | > 100 µM (inactive) | > 100 µM (inactive) |  |  | > 100 µM (inactive)
COC1=C(C(=O)OC(C)(C)C)[C@]2(C)C(C(=O)OC(C)(C)C)C(OC)=C(C(=O)OC(C)(C)C)[C@]2(C)C1C(=O)OC(C)(C)C (stereo not given in full) | 83.9 µM (inactive) | 97.7 µM (inactive) | > 100 µM (inactive) | > 100 µM (inactive) | > 100 µM (inactive) | 53.1 µM (inactive) | > 100 µM (inactive) | > 100 µM (inactive) | 
CN(C)c1ccc(/C=C(/NC(=O)c2ccccc2)c2nc3cc(Cl)ccc3[nH]2)cc1 | 34.4 µM (inactive) | 32.4 µM (inactive) | 27.7 µM (inactive) | 30.1 µM (inactive) |  |  | 2.42 µM (inactive) | 63.1 µM (inactive) | 
CCOC(=O)C(C)(C)Oc1ccc2c(-c3ccc(Cl)cc3)cc(=O)oc2c1 | > 100 µM (inactive) | > 100 µM (inactive) | > 100 µM (inactive) | > 100 µM (inactive) |  | > 100 µM (inactive) |  |  | > 100 µM (inactive)
CC1SC2=NC3=C(c4ccccc4C3=O)C(c3ccc(F)cc3)N2C1=O (stereo not given) | > 100 µM (inactive) | > 100 µM (inactive) | > 100 µM (inactive) | 86.3 µM (inactive) | 89.7 µM (inactive) | 95.7 µM (inactive) |  |  | 
Nc1ccccc1[S+]([O-])c1ccccc1 (stereo not given) |  | > 100 µM (inactive) | > 100 µM (inactive) | > 100 µM (inactive) | > 100 µM (inactive) | > 100 µM (inactive) | > 100 µM (inactive) |  | 
C=C(CN(C)C)C(=O)c1ccccc1OC | 4.49 µM (inactive) | 17.2 µM (inactive) | 26.2 µM (inactive) | 3.68 µM (inactive) | 17.9 µM (inactive) | 21.1 µM (inactive) | 6.08 µM (inactive) | 25.6 µM (inactive) | 
Nc1ccc(Nc2nc(F)nc(-c3c4ccccc4c4n3CCS4)n2)cc1 | 16.7 µM (inactive) | 10.4 µM (inactive) | 18.1 µM (inactive) | 14.9 µM (inactive) | 4.91 µM (inactive) | 17.1 µM (inactive) | 13.8 µM (inactive) | 36.1 µM (inactive) | 15 µM (inactive)
O=C1C=CN(C2OC(CO)C(O)C2O)C(=O)C1 (stereo not given) | 24.6 µM (inactive) | 1730 µM (inactive) | 67.3 µM (inactive) |  |  |  | 557 µM (inactive) |  | 
Cc1cc(Cl)ccc1NC1=NC(=O)C(CC(=O)Nc2ccc([N+](=O)[O-])cc2[N+](=O)[O-])S1 (stereo not given) | 34.1 µM (inactive) | 30.5 µM (inactive) | 31.1 µM (inactive) | 18.8 µM (inactive) | 20.6 µM (inactive) | 19.9 µM (inactive) |  | 28.6 µM (inactive) | 
CCC(C)CC(C)CC(C)/C=C(\C)C1=C(C)CC(C)(O)O1 (stereo not given) | > 100 µM (inactive) | 98.4 µM (inactive) |  | 53 µM (inactive) |  | 64.1 µM (inactive) | > 100 µM (inactive) | 86.9 µM (inactive) | > 100 µM (inactive)
C[C@@H]1C2=CC[C@@]3(C)C(CCC3[C@H](C)[C@H]3C[C@@]4(C)O[C@@](c5cccnc5)(O3)OC4(C)C)[C@@H]2C2OC2[C@@]12CCC(=O)O2 (stereo not given in full) | 49.1 µM (inactive) | 37.5 µM (inactive) | 31.8 µM (inactive) | 35.5 µM (inactive) |  | 33 µM (inactive) | 20.5 µM (inactive) | 85.1 µM (inactive) | 
COC(=O)[C@@]12OC[C@]34C([C@@H](O)C1O)[C@@]1(C)CC(=O)C(O)=C(C)C1C[C@H]3OC(=O)[C@H](OC(=O)/C=C(/c1ccccc1)C(F)(F)F)[C@H]42 (stereo not given in full) | 5.41 µM (inactive) | 0.989 µM (active) | 3.92 µM (inactive) | 2.65 µM (inactive) | 2.22 µM (inactive) | 4.19 µM (inactive) | 6.3 µM (inactive) | 9.1 µM (inactive) | 
C=C[C@]1(C)CC(O)C2C(=C)C(=O)OC2[C@H]1C(=C)C=O (stereo not given in full) | 2.08 µM (inactive) |  | 5.47 µM (inactive) | 1.64 µM (inactive) |  | 5.73 µM (inactive) | 5.41 µM (inactive) | 3.56 µM (inactive) | 
CC(=O)OC(C)(C)/C=C/C(=O)[C@](C)(O)[C@H]1[C@H](O)C[C@@]2(C)[C@@H]3CC=C4[C@@H](C=C(O)C(=O)C4(C)C)[C@]3(C)C(=O)C[C@]12C [CUCURBITACIN E] | 0.0302 µM (active) | 0.0241 µM (active) | 0.0197 µM (active) | 0.0339 µM (active) | 0.0356 µM (active) | 0.0715 µM (active) | 0.06 µM (active) | 0.0914 µM (active) | 0.0406 µM (active)
